The text below walks through data of patent US7311878B2, “Method and apparatus for producing synergistic biocide” (Hercules Incorporated, priority 2005, dated 2007).

Marks after values point to notes of the source that are not given here.

In the experiment the test system is multi-species bacterial consortium. As to the kind of experiment: dose-challenge efficacy assay against bacterial consortium, spread plate cell enumeration. The experiment is classed as cell-based. To be noted: for effect on cell counts of the consortium (in words) / population size of bacterial consortium, log10 colony counts: Example 1; for effect on cell counts of the consortium (in words): 0.5 mg/l total, 20 minutes exposure, pH 5 to 8; for population size of bacterial consortium, log10 colony counts: 20 minute exposure, total halogen 0.5 mg/l, average of three values; for numbers of surviving cells, Log10 transformations of the plate counts: Example 2, 20-minute contact time, 0.5 mg/l (as Cl2) active, initial approx. 2×10^5 bacteria per milliliter. The method, then:
The efficacies of the individual haloamines and the synergistic combination produced with the apparatus described above were determined using a consortium of microorganisms and a dose-response protocol. Concentrations of monochloramine and dichloramine reported herein are in units of milligrams per liter as measured by Cl2 analysis; the Hach DPD chlorine test (Hach Company, Loveland, Colo.) was used to measure the total available chlorine concentrations and are expressed as milligrams per liter as Cl2. The DPD assay is based on the amount of chlorine in a sample that reacts with N,N-diethyl-p-phenylenediamine oxalate. To determine the amount of monochloramine or dichloramine in a sample, an aliquot of the sample was transferred to a clean container, diluted with deionized water, as appropriate, and assayed according to the Hach DPD chlorine test. The assay measures the total amount of chlorine that can react with the indicator reagent. The reaction is measured by determining the absorbance of light at 530 nm. Therefore, for the purposes of this invention, a quantity of monochloramine or dichloramine presented in units of mg/l signifies that amount of monochloramine or dichloramine that contains the designated amount of milligrams per liter of reactive chlorine. Thus, for example, a sample treated with 1 mg/l monochloramine or dichloramine will contain a total available chlorine concentration of 1 mg/l. Similarly, a sample treated with 0.5 mg/l monochloramine and 0.5-mg/l dichloramine will contain a total available chlorine concentration of 1 mg/l.
The materials were tested against multi-species bacterial consortium (also referred to as an artificial consortium) containing approximately equal numbers of six bacterial strains. Although the test strains are representative of organisms present in paper mill systems; the effect is not limited to these bacteria. Two of the strains were Klebsiella pneumonia (ATCC 13883) and Pseudomonas aeruginosa (ATCC 15442). The other four strains were isolated from papermill systems and have been presumptively identified as Curtobacterium flaccumfaciens, Burkholderia cepacia, Bacillus maroccanus, and Pseudomonas glathei. Each strain was grown on Tryptic Soy Agar overnight at 37° C. Sterile cotton-tipped swabs were used to aseptically transfer cells to a sterile solution of saline. Each cell suspension was prepared to a desired concentration as measured by turbidity before equal volumes of each of the cell suspensions were then combined to prepare the consortium.
A sample of the biocide solution was aseptically collected at the end of line 11 after the apparatus had been operated for approximately 20 minutes and used in an efficacy assay. Samples of the monochloramine solution in reservoir 3 and the dichloramine solution in mixing chamber 16 were also collected to test efficacy of each active. In the assay, the bacterial consortium was prepared as described above and an appropriate quantity of the cell suspension was aseptically transferred to sterile saline with pH adjusted to selected values. The cells were then challenged with the haloamines and synergistic combinations of the haloamines. In each case, the total halogen concentration was 0.5 mg/l (as […]). In this example, in addition to untreated control, the consortium was exposed to the following treatments: (1) 0.5 mg/l of monochloramine; 0.5 mg/l dichloramine; (3) 0.25 mg/l monochloramine plus 0.25 mg/l dichloramine; and (4) 0.4 mg/l monochloramine plus 0.1 mg/l dichloramine. The consortium was exposed to the haloamines for 20 minutes before samples were removed for cell enumeration by the spread plate technique. […] The control counts presented in Table 1 are those obtained after a 20 minute exposure to saline with pH adjusted to the indicated value.
The dose-challenge studies were carried out as previously described using a freshly prepared bacterial consortium. Sterile saline was prepared with pH adjusted to values of 5.0, 6.0, 7.0 and 8.0. […]

`ClNCl` [DCA, dichloramine]: the “effect on cell counts of the consortium (in words)” value was “decreased cell counts”. In addition, under “pH 5 saline”, the “population size of bacterial consortium, log10 colony counts” value (shortened to “population size … log10 colony counts”) is 3.50 log10 colony counts and the “numbers of surviving cells, Log10 transformations of the plate counts” value is listed as 3.56 Log10. Besides, for the setting “pH 6 saline”, the “population size … log10 colony counts” value came out at 5.16 log10 colony counts and the “numbers of surviving cells, Log10 transformations of the plate counts” value is given as 5.16* Log10. For the same compound, where the note is “pH 7 saline”, the “population size … log10 colony counts” value was determined as 5.01 log10 colony counts and the “numbers of surviving cells, Log10 transformations of the plate counts” value came out at 5.07 Log10. For the same compound, where the note is “pH 8 saline”, the “population size … log10 colony counts” value worked out at 5.19 log10 colony counts and the “numbers of surviving cells, Log10 transformations of the plate counts” value came out at 5.24 Log10.

`NCl` [MCA, monochloramine]: the “effect on cell counts of the consortium (in words)” value is on record as “decreased cell counts”. Besides, under “pH 5 saline”, the “population size … log10 colony counts” value is recorded as 4.93 log10 colony counts and the “numbers of surviving cells, Log10 transformations of the plate counts” value worked out at 5.03 Log10. Also, for the setting “pH 6 saline”, the “population size … log10 colony counts” value was determined as 4.94 log10 colony counts and the “numbers of surviving cells, Log10 transformations of the plate counts” value is reported as 4.84 Log10. Besides, for the setting “pH 7 saline”, the “population size … log10 colony counts” value turned out to be 5.06 log10 colony counts and the “numbers of surviving cells, Log10 transformations of the plate counts” value is on record as 5.13 Log10. Moreover, under “pH 8 saline”, the “population size … log10 colony counts” value came to 5.36 log10 colony counts and the “numbers of surviving cells, Log10 transformations of the plate counts” value is given as 5.41 Log10.
